The target of one experiment is T1, topo IIα (Homo sapiens, UniProt P11388).
T1 construct: gene TOP2A
As to the kind of experiment: cell-free relaxation assay of supercoiled pHOT1 plasmid DNA with purified human topo II, agarose gel. The experiment is classed as biochemical.

Another experiment concerns the target T2, topo I (Homo sapiens, UniProt P11387).
T2 construct: gene TOP1
T2 sequence (P11387 2-765): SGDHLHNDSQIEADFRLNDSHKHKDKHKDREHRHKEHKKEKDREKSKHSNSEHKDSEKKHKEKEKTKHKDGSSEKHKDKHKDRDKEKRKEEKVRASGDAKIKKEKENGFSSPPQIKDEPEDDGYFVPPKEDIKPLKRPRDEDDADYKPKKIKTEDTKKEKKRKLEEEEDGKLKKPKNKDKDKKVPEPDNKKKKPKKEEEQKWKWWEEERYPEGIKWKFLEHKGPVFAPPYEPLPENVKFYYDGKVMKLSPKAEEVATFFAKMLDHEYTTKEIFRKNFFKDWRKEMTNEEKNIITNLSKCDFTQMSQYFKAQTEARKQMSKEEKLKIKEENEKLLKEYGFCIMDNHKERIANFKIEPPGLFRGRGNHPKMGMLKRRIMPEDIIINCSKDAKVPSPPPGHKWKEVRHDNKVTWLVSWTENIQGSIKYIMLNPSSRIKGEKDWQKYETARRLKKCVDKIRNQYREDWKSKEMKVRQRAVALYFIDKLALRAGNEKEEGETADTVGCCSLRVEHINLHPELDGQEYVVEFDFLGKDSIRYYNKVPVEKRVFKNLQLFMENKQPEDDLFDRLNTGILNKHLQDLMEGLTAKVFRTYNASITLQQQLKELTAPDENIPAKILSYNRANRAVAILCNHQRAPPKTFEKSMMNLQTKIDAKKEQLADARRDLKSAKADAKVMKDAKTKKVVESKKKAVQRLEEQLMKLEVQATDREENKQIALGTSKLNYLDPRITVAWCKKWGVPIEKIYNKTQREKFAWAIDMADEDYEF
Nature of the experiment: cell-free relaxation assay of supercoiled pHOT1 plasmid DNA with purified human topo I, agarose gel. It counts as biochemical.

T1 sequence (P11388 whole entry): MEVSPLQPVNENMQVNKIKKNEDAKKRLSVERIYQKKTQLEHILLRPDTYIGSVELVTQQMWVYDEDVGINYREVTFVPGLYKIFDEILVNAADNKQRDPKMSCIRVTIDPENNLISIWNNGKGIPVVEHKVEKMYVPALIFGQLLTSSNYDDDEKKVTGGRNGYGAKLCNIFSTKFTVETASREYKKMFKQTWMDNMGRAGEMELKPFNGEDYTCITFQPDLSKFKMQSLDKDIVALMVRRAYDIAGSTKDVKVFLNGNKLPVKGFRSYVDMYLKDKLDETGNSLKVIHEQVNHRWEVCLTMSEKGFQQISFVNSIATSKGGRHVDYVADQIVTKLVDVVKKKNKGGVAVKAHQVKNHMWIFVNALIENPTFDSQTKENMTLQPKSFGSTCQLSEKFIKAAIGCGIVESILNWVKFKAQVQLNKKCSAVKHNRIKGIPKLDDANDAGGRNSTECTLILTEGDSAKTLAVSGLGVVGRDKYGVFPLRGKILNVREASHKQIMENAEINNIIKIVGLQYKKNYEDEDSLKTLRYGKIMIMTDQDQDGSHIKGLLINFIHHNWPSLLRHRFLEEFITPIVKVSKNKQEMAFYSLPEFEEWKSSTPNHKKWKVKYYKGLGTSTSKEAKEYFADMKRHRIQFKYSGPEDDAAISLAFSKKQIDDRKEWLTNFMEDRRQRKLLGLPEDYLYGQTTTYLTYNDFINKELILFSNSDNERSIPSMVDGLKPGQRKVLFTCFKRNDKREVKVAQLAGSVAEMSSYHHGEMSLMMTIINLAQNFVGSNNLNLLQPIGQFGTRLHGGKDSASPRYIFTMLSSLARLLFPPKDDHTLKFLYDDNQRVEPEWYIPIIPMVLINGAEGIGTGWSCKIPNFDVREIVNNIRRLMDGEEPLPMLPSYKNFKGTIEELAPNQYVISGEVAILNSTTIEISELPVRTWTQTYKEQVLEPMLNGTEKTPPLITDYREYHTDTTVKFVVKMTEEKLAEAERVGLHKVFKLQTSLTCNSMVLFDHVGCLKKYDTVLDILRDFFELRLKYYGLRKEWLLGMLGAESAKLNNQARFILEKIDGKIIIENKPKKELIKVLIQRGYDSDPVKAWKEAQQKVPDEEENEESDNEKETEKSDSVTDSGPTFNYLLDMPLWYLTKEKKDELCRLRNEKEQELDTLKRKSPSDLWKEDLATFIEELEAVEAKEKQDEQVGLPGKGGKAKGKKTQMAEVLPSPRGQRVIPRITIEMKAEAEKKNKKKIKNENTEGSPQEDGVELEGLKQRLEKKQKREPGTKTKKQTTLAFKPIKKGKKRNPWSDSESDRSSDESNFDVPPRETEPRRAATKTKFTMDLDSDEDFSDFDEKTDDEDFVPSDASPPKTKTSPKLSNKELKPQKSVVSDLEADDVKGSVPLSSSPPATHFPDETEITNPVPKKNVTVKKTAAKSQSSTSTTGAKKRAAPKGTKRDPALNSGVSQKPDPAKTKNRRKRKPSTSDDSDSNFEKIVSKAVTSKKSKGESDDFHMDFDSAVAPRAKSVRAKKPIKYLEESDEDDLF

For `C[C@@]12CCC(=O)c3coc(c31)C(=O)c1cc3c(cc12)C(=O)C=CC3=O` [HQ, halenaquinone], the 50% inhibitory concentration (IC50) was 16.6 nM on topo IIα and 3580 nM against topo I.

As a reminder, the IC50 is the midpoint of a concentration-inhibition curve. A high value points to a need for much substance.

(Values after publication PMC4446623, “Tackling the Cytotoxic Effect of a Marine Polycyclic Quinone-Type Metabolite: Halenaquinone Induces Molt 4 Cells Apoptosis via Oxidative Stress Combined with the Inhibition of HDAC and Topoisomerase Activities” (Marine Drugs, 2015).)
